Test results from patent US6964959B2, “Use of a methylol-containing compound to treat tumors” (Carter Wallace, Inc., priority 1999, dated 2005).
Entries after “also recorded” stand apart in the source; their conditions may differ.

Columns and labels:
PA-1 [1] = assay: Cell growth inhibition, PA-1 ovarian tumor cells; type: cell-based; settings: Homo sapiens, PA-1, 72 h, PA-1 (ovary); 3 d exposure; cell number
Experimental: (§1) One ml of this cell suspension was added to each well of a 12 well cell culture plate that contained 3 ml of appropriate media plus serum. […] Control wells received 40 μl of 5% Kollidon 17PF alone. Seventy-two hours later, all cells were harvested by trypsinization and cell number determined electronically using a Coulter Model Z1 particle counter (Coulter Corp., Miami, Fla.) to assess cell growth inhibition. Each experiment was performed in duplicate and repeated a minimum of three times.
(§2) Cells were seeded at a density of 1-5×10^4 cells in each well of a 6 well tissue culture flask. […] After three days, cells were harvested by trypsinization and cell number determined electronically. Cell growth inhibition was determined by comparison to non-Taurolidine exposed control cultures. The IC50 was calculated as the concentration required to inhibit cell number by 50%.

NIH-3T3 = assay: Flow cytometry cell cycle distribution / DNA debris, NIH-3T3; type: cell-based, murine
Experimental: Three×10^5 cells were seeded in plastic tissue culture flasks. […] Control cultures received an appropriate volume of Kollidine-17P. […] The percentage of DNA debris in the sub-G0/G1 region was assessed using cytofluorometric techniques. Each bar represents the mean (±SE) of three determinations. **p≦0.01, ***p≦0.001, ****p≦0.0001
For flow cytometry studies, 1×10^6 PA-1, SKOV-3, or NIH-3T3 cells were incubated for 24 h in appropriate media containing serum. […] Control cultures for each cell line were incubated in media containing 40 μl of 5% Kollidon 17PF alone. […] For example, harvested cells were resuspended in ice cold phosphate-buffered saline at a final cell density of 2×10^6 cells/ml. The cells then were stained for 30 min at room temperature in the dark with a solution of 0.05 mg/ml propidium iodide, 0.6% Igepal, and 1% sodium citrate. Flow cytometry was performed by FACScan (Becton Dickinson, Plymouth, England) using the ModFit LT program (Becton Dickinson). Statistical analysis was performed with the Kruskal Wallis non-parametric ANOVA test followed by Dunn's multiple comparisons test using Instat.
Three×10^5 cells were seeded in plastic tissue culture flasks. […] Control cultures received an appropriate volume of Kollidine-17P. After an additional 48 h, cells were harvested, stained with propidium iodide, and cell cycle distribution assessed using cytofluorometric techniques. Each value represents the percentage of cells in the noted cell cycle phases and is the mean±SEM of three determinations.

PA-1 [2] = assay: Annexin-V FITC binding (phosphotidylserine externalization), PA-1; type: cell-based, human; settings: 24 h exposure
Experimental: (§3) Three×10^5 cells were seeded in plastic tissue culture flasks. […] Control cultures received an appropriate volume of Kollidine-17P. After an additional 24 h, cells were harvested and phosphotidylserine externalization determined by assessing Annexin-V FITC binding using cytofluorometric techniques. Each bar represents the mean±SE of four determinations. **p≦0.01, ***p≦0.001
(§4) Cell membrane phosphotidylserine externalization, as a reflection of the potential induction of apoptosis, was assessed by flow cytometry methods using the ApoAlert® Annexin-V/FITC assay kit. Briefly, 1×10^6 cells were incubated for 24 h in tissue culture medium containing serum. […] Control cultures received 5% Kollidon 17PF alone. Twenty-four hours later, all cells were harvested by trypsinization. The harvested cells were resuspended in 200 μl of binding buffer and then incubated for 5-15 min in a solution containing 1 μg/ml Annexin-V FITC at room temperature in the dark. The cells were then analyzed to quantitate Annexin-V binding by cytofluorometric techniques that utilized FACScan using the ModFit LT program with statistical analysis as described above.

SKOV-3 = assay: Annexin-V FITC binding (phosphotidylserine externalization), SKOV-3; type: cell-based, human; settings: 24 h exposure
Experimental: as §3, §4

PARP [3] = assay: Western-blot analysis of PARP cleavage, PA-1 cells; type: cell-based, human; settings: 24 h exposure to 50 or 100 μM
Experimental: (§5) Two×10^6 cells were seeded in 150 cm^2 tissue culture flasks. […] After an additional twenty-four hours, cells were harvested, cell number determined, and aliquots derived from equal cell numbers generated from each exposure condition. Total proteins from these whole cell lysates were separated by SDS-PAGE and transferred to nitrocellulose filters. Filters were then immunoblotted to detect intact PARP protein and cleavage fragments by using the clone C-2-10 mouse monoclonal anti-PARP antibody (Zymed Laboratories, San Francisco, Calif.). The resulting protein-antibody complexes were visualized by chemiluminescence techniques.
(§6) Western-blot analysis was used to assess of PARP cleavage. Two×10^6 cells were seeded into separate 75 cm^2 tissue culture flasks containing 20 ml of tissue culture media plus serum. […] Twenty-four hours after the addition of Taurolidine, cells were harvested, cell number determined, and aliquots containing an equal cell number were generated from each exposure condition. Total proteins from whole cell lysates generated from these aliquots were separated by SDS-PAGE and electrotransferred to nitrocellulose filters. Filters were then processed to detect intact PARP protein and cleavage fragments by using the clone C-2-10 mouse monoclonal anti-PARP antibody (Zymed Laboratories, San Francisco, Calif.). […]

PARP [4] = assay: Western-blot analysis of PARP cleavage, SKOV-3 cells; type: cell-based, human; settings: 24 h exposure to 50 or 100 μM
Experimental: as §5, §6

[5] = tested on: human and murine tumor cell lines; assay: Growth inhibition, panel of selected human and murine tumor cell lines; type: cell-based; settings: 72 h; 3 d exposure; panel of 12 selected human and murine tumor cell lines; read-out: IC50s, growth inhibition across all cell lines evaluated
Experimental: as §1, §2

[6] = tested on: human ovarian tumor cells; assay: Growth of established human ovarian tumor cell colonies; type: cell-based; settings: 24-hour exposure to 50 μM; discrete colonies
Experimental: Parallel studies were carried out to assess whether disruption of cell adhesion played a role in the cytotoxic activity.

PA1 human ovarian cells = assay: DNA fragmentation, PA1 human ovarian cells; type: cell-based
Source text: (§7) This DNA fragmentation was not observed in normal 3T3 cells.

3T3 cells = assay: DNA fragmentation, normal 3T3 cells; type: cell-based
Source text: as §7

[7] = tested on: HL-60 human promyelocytic cell line; assay: Apoptosis induction in HL-60 cells; type: cell-based; settings: non-adherent cancer cell models
[8] = Clinical tolerability in ovarian tumor and glioblastoma patients; type: in vivo, human; settings: i.p. lavage after surgery for recurrent ovarian tumors; systemic in glioblastoma
Experimental: Taurolidine was administered by i.p. lavage immediately following surgery for removal of recurrent ovarian tumors. For patients with glioblastoma, Taurolidine was administered systemically.
Taurolidine was administered by i.p. lavage immediately following surgery for removal of recurrent ovarian tumors. For patients with glioblastoma, taurolidine was administered systemically.

human tumor cell lines = assay: Tumor cell killing and apoptosis in culture; type: cell-based

O=S1(=O)CCN(CN2CCS(=O)(=O)NC2)CN1 [Taurolidine, Bis-(1,1-dioxoperhydro-1,2,4-thiadiazinyl-4)methane]
IC50 (PA-1 [1]): ~10 µM
cell cycle kinetics and distribution (NIH-3T3; 3T3, 24-hour exposure): significantly reduced the percentage of cells in both the S- and G2/M-phases
effect on cell cycle distribution (NIH-3T3; NIH-3T3, 48 h exposure): increased the percentage of cells in S-phase, decreased the percentage of cells in G0/G1; also recorded: decreased the percentage of cells in G0/G1 and increased the percentage of cells in S
DNA debris in the sub-G0/G1 region (NIH-3T3; NIH-3T3, 48 h exposure, 25-100 μM): did not increase DNA debris; also recorded: did not significantly affect the appearance of DNA debris
increase in Annexin-V binding (Annexin-V positive cells) (PA-1 [2]): 4 fold
increase in Annexin-V binding (Annexin-V positive cells) (SKOV-3): 3 fold
PARP cleavage (PARP [3]): induced PARP cleavage; also recorded: resulted in PARP cleavage
PARP cleavage (PARP [4]): induced PARP cleavage; also recorded: resulted in PARP cleavage
IC50 [5]: 9.6 to 34.2 µM
cytotoxic effect against the growth of established tumor cells [6]: significant cytotoxic effect
DNA fragmentation (PA1 human ovarian cells; PA1, 24-hour exposure): induced a high degree of DNA fragmentation
DNA fragmentation by agarose-gel electrophoresis (PA1 human ovarian cells; ovarian tumor cells, 50 μM): overt DNA fragmentation
DNA fragmentation (3T3 cells; 3T3, 24-hour exposure): not observed
DNA fragmentation by agarose-gel electrophoresis (3T3 cells; 3T3 cells, identical regimen (50 μM)): not apparent
apoptotic signalling events after exposure [7]: activation of caspases 3, 8 and 9
tolerability in patients [8]: well tolerated
incubation time after which apoptosis of tumor cells is induced (human tumor cell lines; in culture): as little as one hour
number of different human tumor cell lines killed (human tumor cell lines; ovarian, breast, brain, colon, prostate, urinary bladder, lung, melanomas, mesotheliomas, laryngeal carcinomas, leukemias, lymphomas): at least 28
